Results from patent US9708314B2, “Heterocyclic amide compound” (NISSAN CHEMICAL INDUSTRIES, LTD., priority 2013, dated 2017).

Columns and labels:
Type in all cases: in vivo
[1] = system: Echinochloa oryzacola Vasing.; experiment: Test Example 1: herbicidal activity, application before weed generation in submerged conditions; conditions: Application herbicide amount 320 g/ha; Seventeenth Table
How it was run: (§1)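 Pre-emergence application to water surface of submerged pots (4 cm depth, alluvial soil) on sowing day, with 2.5-leaf rice transplanted; emulsion diluted to g/ha rates. Grown in greenhouse at 25–30 °C; 0–5 herbicidal/crop-effect score after three weeks.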

Monochoria vaginalis = experiment: as above; conditions: Application herbicide amount 320 g/ha; Seventeenth Table
How it was run: as §1

Scirpus juncoides = experiment: as above; conditions: Application herbicide amount 320 g/ha; Seventeenth Table
How it was run: as §1

Setaria viridis = experiment: Test Example 4: herbicidal effect by application to foliage (diluvial soil, plastic box); conditions: Application herbicide amount 320 g/ha
How it was run: (§2)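 Plants were grown in sterilized diluvial soil in a greenhouse at 25-30° C for 14 days, then sprayed on stems and leaves with water-diluted emulsion formulation at set rates in g/ha. Weed control and crop injury were scored 3 weeks after treatment on a 0-5 herbicidal-ratio scale, from 0 (≤5%) to 5 (≥90%).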

Abutilon theophrasti = experiment: as above; conditions: Application herbicide amount 320 g/ha
How it was run: as §2

Chenopodium album = experiment: as above; conditions: Application herbicide amount 320 g/ha
How it was run: as §2

[2] = system: Echinochloa crus-galli var. crus-galli; experiment: as above; conditions: Application herbicide amount 320 g/ha
How it was run: as §2

Apera spica-venti. = experiment: as above; conditions: Application herbicide amount 320 g/ha
How it was run: as §2

Avena fatua = experiment: as above; conditions: Application herbicide amount 320 g/ha
How it was run: as §2

Veronica persica = experiment: as above; conditions: Application herbicide amount 320 g/ha
How it was run: as §2

Digitaria ciliaris = experiment: as above; conditions: Application herbicide amount 320 g/ha
How it was run: as §2

Alopecurus myosuroides = experiment: as above; conditions: Application herbicide amount 320 g/ha
How it was run: as §2

Galium spurium = experiment: as above; conditions: Application herbicide amount 320 g/ha
How it was run: as §2

Lolium multiflorum Lam. = experiment: as above; conditions: Application herbicide amount 320 g/ha
How it was run: as §2

SMILES	A: Echinochloa oryzicola Vasing. (herbicidal effect grade) [1]	C: Monochoria vaginalis (herbicidal effect grade) (Monochoria vaginalis)	B: Scirpus juncoides (herbicidal effect grade) (Scirpus juncoides)	G (Setaria viridis)	M (Abutilon theophrasti)	O (Chenopodium album)	H [2]	L (Apera spica-venti.)	I (Avena fatua)	R (Veronica persica)	F (Digitaria ciliaris)	J (Alopecurus myosuroides)	Q (Galium spurium)	K (Lolium multiflorum Lam.)
Cc1nnc(NC(=O)c2ccc(C(F)(F)F)n3c(C=O)nnc23)o1 [1-068]	2 (Herbicidal ratio of 20% or more and less than 40%)	3 (Herbicidal ratio of 40% or more and less than 70%)	3 (Herbicidal ratio of 40% or more and less than 70%)	4 (Herbicidal ratio of 70% or more and less than 90%)	3 (Herbicidal ratio of 40% or more and less than 70%)	5 (Herbicidal ratio of 90% or more (almost completely withered))	5 (Herbicidal ratio of 90% or more (almost completely withered))	1 (Herbicidal ratio of 5% or more and less than 20%)	1 (Herbicidal ratio of 5% or more and less than 20%)	4 (Herbicidal ratio of 70% or more and less than 90%)	5 (Herbicidal ratio of 90% or more (almost completely withered))	1 (Herbicidal ratio of 5% or more and less than 20%)	3 (Herbicidal ratio of 40% or more and less than 70%)	1 (Herbicidal ratio of 5% or more and less than 20%)
Cc1nnc(NC(=O)c2ccc(C(F)(F)F)n3c(-c4cc(Cl)cc(Cl)c4)nnc23)o1 [1-071]	4 (Herbicidal ratio of 70% or more and less than 90%)	4 (Herbicidal ratio of 70% or more and less than 90%)	5 (Herbicidal ratio of 90% or more (almost completely withered))	0 (Herbicidal ratio of 5% or less (almost no effect))	3 (Herbicidal ratio of 40% or more and less than 70%)	5 (Herbicidal ratio of 90% or more (almost completely withered))	0 (Herbicidal ratio of 5% or less (almost no effect))	0 (Herbicidal ratio of 5% or less (almost no effect))	0 (Herbicidal ratio of 5% or less (almost no effect))	3 (Herbicidal ratio of 40% or more and less than 70%)	1 (Herbicidal ratio of 5% or more and less than 20%)	0 (Herbicidal ratio of 5% or less (almost no effect))	1 (Herbicidal ratio of 5% or more and less than 20%)	0 (Herbicidal ratio of 5% or less (almost no effect))
Cc1nnc(NC(=O)c2cc(C)c(C(F)(F)F)n3c(C(C)C)nnc23)o1 [1-075]	2 (Herbicidal ratio of 20% or more and less than 40%)	2 (Herbicidal ratio of 20% or more and less than 40%)	0 (Herbicidal ratio of 5% or less (almost no effect))	1 (Herbicidal ratio of 5% or more and less than 20%)	1 (Herbicidal ratio of 5% or more and less than 20%)	5 (Herbicidal ratio of 90% or more (almost completely withered))	3 (Herbicidal ratio of 40% or more and less than 70%)	0 (Herbicidal ratio of 5% or less (almost no effect))	0 (Herbicidal ratio of 5% or less (almost no effect))	3 (Herbicidal ratio of 40% or more and less than 70%)	3 (Herbicidal ratio of 40% or more and less than 70%)	0 (Herbicidal ratio of 5% or less (almost no effect))	0 (Herbicidal ratio of 5% or less (almost no effect))	0 (Herbicidal ratio of 5% or less (almost no effect))
Cc1nnc(NC(=O)c2ccc(C(F)(F)F)n3c(N(C)C)nnc23)o1 [1-076]	5 (Herbicidal ratio of 90% or more (almost completely withered))	4 (Herbicidal ratio of 70% or more and less than 90%)	4 (Herbicidal ratio of 70% or more and less than 90%)	5 (Herbicidal ratio of 90% or more (almost completely withered))	4 (Herbicidal ratio of 70% or more and less than 90%)	5 (Herbicidal ratio of 90% or more (almost completely withered))	5 (Herbicidal ratio of 90% or more (almost completely withered))	4 (Herbicidal ratio of 70% or more and less than 90%)	3 (Herbicidal ratio of 40% or more and less than 70%)	4 (Herbicidal ratio of 70% or more and less than 90%)	5 (Herbicidal ratio of 90% or more (almost completely withered))	3 (Herbicidal ratio of 40% or more and less than 70%)	2 (Herbicidal ratio of 20% or more and less than 40%)	3 (Herbicidal ratio of 40% or more and less than 70%)
C#CC[S+]([O-])c1nnc2c(C(=O)Nc3nnc(C)o3)ccc(C(F)(F)F)n12 (stereo not shown) [1-077]	0 (Herbicidal ratio of 5% or less (almost no effect))	2 (Herbicidal ratio of 20% or more and less than 40%)	0 (Herbicidal ratio of 5% or less (almost no effect))	2 (Herbicidal ratio of 20% or more and less than 40%)	2 (Herbicidal ratio of 20% or more and less than 40%)	5 (Herbicidal ratio of 90% or more (almost completely withered))	4 (Herbicidal ratio of 70% or more and less than 90%)	0 (Herbicidal ratio of 5% or less (almost no effect))	0 (Herbicidal ratio of 5% or less (almost no effect))	3 (Herbicidal ratio of 40% or more and less than 70%)	4 (Herbicidal ratio of 70% or more and less than 90%)	0 (Herbicidal ratio of 5% or less (almost no effect))	1 (Herbicidal ratio of 5% or more and less than 20%)	0 (Herbicidal ratio of 5% or less (almost no effect))
Cc1nnc(NC(=O)c2ccc(C(F)(F)F)n3c(Nc4ccccc4)nnc23)o1 [1-082]	3 (Herbicidal ratio of 40% or more and less than 70%)	2 (Herbicidal ratio of 20% or more and less than 40%)	2 (Herbicidal ratio of 20% or more and less than 40%)	3 (Herbicidal ratio of 40% or more and less than 70%)	4 (Herbicidal ratio of 70% or more and less than 90%)	5 (Herbicidal ratio of 90% or more (almost completely withered))	4 (Herbicidal ratio of 70% or more and less than 90%)	1 (Herbicidal ratio of 5% or more and less than 20%)	0 (Herbicidal ratio of 5% or less (almost no effect))	4 (Herbicidal ratio of 70% or more and less than 90%)	4 (Herbicidal ratio of 70% or more and less than 90%)	0 (Herbicidal ratio of 5% or less (almost no effect))	0 (Herbicidal ratio of 5% or less (almost no effect))	1 (Herbicidal ratio of 5% or more and less than 20%)
CSCCc1nnc2c(C(=O)Nc3nnc(C)o3)ccc(C(F)(F)F)n12 [1-083]	2 (Herbicidal ratio of 20% or more and less than 40%)	3 (Herbicidal ratio of 40% or more and less than 70%)	3 (Herbicidal ratio of 40% or more and less than 70%)	5 (Herbicidal ratio of 90% or more (almost completely withered))	5 (Herbicidal ratio of 90% or more (almost completely withered))	5 (Herbicidal ratio of 90% or more (almost completely withered))	5 (Herbicidal ratio of 90% or more (almost completely withered))	0 (Herbicidal ratio of 5% or less (almost no effect))	3 (Herbicidal ratio of 40% or more and less than 70%)	4 (Herbicidal ratio of 70% or more and less than 90%)	5 (Herbicidal ratio of 90% or more (almost completely withered))	0 (Herbicidal ratio of 5% or less (almost no effect))	4 (Herbicidal ratio of 70% or more and less than 90%)	1 (Herbicidal ratio of 5% or more and less than 20%)
Cc1nnc(NC(=O)c2ccc(C(F)(F)F)n3c(CC[S+](C)[O-])nnc23)o1 (stereo not shown) [1-084]	2 (Herbicidal ratio of 20% or more and less than 40%)	2 (Herbicidal ratio of 20% or more and less than 40%)	3 (Herbicidal ratio of 40% or more and less than 70%)	5 (Herbicidal ratio of 90% or more (almost completely withered))	5 (Herbicidal ratio of 90% or more (almost completely withered))	5 (Herbicidal ratio of 90% or more (almost completely withered))	5 (Herbicidal ratio of 90% or more (almost completely withered))	0 (Herbicidal ratio of 5% or less (almost no effect))	3 (Herbicidal ratio of 40% or more and less than 70%)	5 (Herbicidal ratio of 90% or more (almost completely withered))	5 (Herbicidal ratio of 90% or more (almost completely withered))	0 (Herbicidal ratio of 5% or less (almost no effect))	4 (Herbicidal ratio of 70% or more and less than 90%)	0 (Herbicidal ratio of 5% or less (almost no effect))
